Source: US20260184693A1, “INHIBITORS OF SOLUTE CARRIER FAMILY 6A MEMBER 19 (SLC6A19) AND METHODS OF USE THEREOF” (Maze Therapeutics, Inc., priority 2022, published 2026)

Key:
human SLC6A19 [1] = target: T1, human SLC6A19 (Homo sapiens, UniProt Q695T7); test: Example B2: 13C6,15N-isoleucine uptake, RapidFire mass spectrometry, in CHO cells with doxycycline-inducible expression of human SLC6A19 and TMEM27; assay type: cell-based; settings: read-out: SLC6A19_RapidFire Uptake Assay IC50
T1 construct: expressed in transfected cells
T1 sequence (Q695T7 1-634): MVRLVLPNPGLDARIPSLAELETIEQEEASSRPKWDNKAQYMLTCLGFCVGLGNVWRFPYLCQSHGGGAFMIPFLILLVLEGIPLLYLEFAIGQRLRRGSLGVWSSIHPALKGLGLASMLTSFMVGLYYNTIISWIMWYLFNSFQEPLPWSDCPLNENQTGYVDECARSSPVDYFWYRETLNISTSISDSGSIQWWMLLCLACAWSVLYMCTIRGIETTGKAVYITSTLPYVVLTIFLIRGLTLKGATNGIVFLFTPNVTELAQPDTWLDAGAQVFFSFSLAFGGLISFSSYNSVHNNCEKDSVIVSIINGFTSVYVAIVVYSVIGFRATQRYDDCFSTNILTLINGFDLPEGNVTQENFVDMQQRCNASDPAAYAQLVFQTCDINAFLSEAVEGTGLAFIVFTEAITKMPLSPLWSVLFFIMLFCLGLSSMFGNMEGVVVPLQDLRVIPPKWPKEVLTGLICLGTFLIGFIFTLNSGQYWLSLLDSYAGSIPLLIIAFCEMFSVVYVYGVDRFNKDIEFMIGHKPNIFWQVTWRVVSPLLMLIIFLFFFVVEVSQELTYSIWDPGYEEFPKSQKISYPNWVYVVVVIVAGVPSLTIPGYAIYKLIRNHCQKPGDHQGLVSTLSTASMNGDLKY
T1 sequence (Q9HBJ8 15-222 partner): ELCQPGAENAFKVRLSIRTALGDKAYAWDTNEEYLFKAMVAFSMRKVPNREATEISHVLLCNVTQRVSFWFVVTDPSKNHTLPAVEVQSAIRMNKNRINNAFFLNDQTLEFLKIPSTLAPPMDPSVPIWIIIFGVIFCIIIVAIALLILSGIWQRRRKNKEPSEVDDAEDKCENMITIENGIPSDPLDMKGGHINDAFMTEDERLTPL
Outline: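 CHO cells were induced with doxycycline to express human SLC6A19 with TMEM27, then pre-incubated 20 min at 37 °C with compounds (2-fold, 10-point, duplicate). Uptake of 13C6,15N-isoleucine (2 mM solution added) over a further 20 min was measured by RapidFire mass spectrometry, using 13C-leucine as internal standard.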

human SLC6A19 [2] = target: T1, human SLC6A19; test: Example B-1: L-[3H]leucine uptake, liquid scintillation, in CHO cells with doxycycline-inducible expression of human SLC6A19 and TMEM27; assay type: cell-based; settings: read-out: SLC6A19_Radioligand Uptake Assay IC50
Experimental: CHO cells with doxycycline-inducible expression of human SLC6A19 and TMEM27 were maintained in T150 cell culture treated flasks using cell culture media, which consisted of 1×DMEM/F12 (Gibco, 11330057), 10% Tet System-Approved FBS (Gibco, A4736401), 100 U/mL Penicillin-Streptomycin (Gibco, 15140122), 1×GlutaMAX™ Supplement (Gibco, 35050061), 1 mM Sodium Pyruvate (Gibco, 11360070), 1.1 mg/mL Sodium Bicarbonate (Gibco, 25080094), 5 μg/mL Blasticidin (InvivoGen, ant-bl-1), 150 μg/mL Hygromycin B Gold (InvivoGen, ant-hg-5), and 500 μg/mL G418 (Sigma-Aldrich, G8168-100 mL). In preparation for the assay, this media was aspirated and 5 mL of TryμLE™ Express Enzyme (Gibco, 12605010) was added to each flask to initiate cell dissociation. The flasks were then incubated (humidified, 37° C. with 5% CO2) for 2 minutes. After incubation, 10 mL of pre-warmed cell culture media was added to each flask. The cell suspension was collected and centrifuged for 5 minutes at 200xg.
The supernatant was aspirated and the pellet was resuspended in 5 mL pre-warmed cell culture media. The resuspended cells were counted using the Countess Cell Counting Chamber (Invitrogen) and the cell concentration of the suspension was readjusted to 1 million live cells/mL using pre-warmed cell culture media. 25 uL/well (25,000 cells/well) of readjusted cell suspension was dispensed into Poly-D-Lysine 384-well white/clear plates (Corning, 354660) using a MultiDrop Combi (Thermo Electron Corp). To induce expression of Human SLC6A19 and TMEM27, 25 uL/well of cell culture media containing 2 μg/mL doxycycline was added to the first 23 columns of each plate resulting in a final concentration of […] doxycycline. 25 μL/well of cell culture media was added to the last column of each plate, to act as negative control wells for Human SLC6A19 and TMEM27 expression. Assay plates were then incubated (humidified, 37° C. with 5% CO2) for 18 hours. After incubation, the media was aspirated and the wells were washed 4 times with pre-warmed HBSS (Sigma-Aldrich, H8264-1L) using an Apricot S-Pipette S2 (Apricot Designs), such that 5 uL/well HBSS was remaining at the end of each wash. […] At this step, the final in-well DMSO concentration in the assay plate is 0.5%. All compounds were plated in a duplicate 8-point dilution series that consisted of 3-fold dilutions. […] Afterwards, 15 uL/well of 3.2 mM hot:cold leucine solution (1:15000 ratio of L-[3,4,5-3H(N)] Leucine (Perkin Elmer, NET460001MC) to L-Leucine (Sigma-Aldrich, L8912-25G) diluted with HBSS (Sigma-Aldrich, H8264-1L)) was added using the Viaflo 384 (Integra), for a final concentration of 1.6 mM hot:cold leucine solution. The plates were then incubated (humidified, 37° C. with 5% CO2) for 20 minutes to conduct the uptake reaction. Immediately after the incubation, the plates were washed 4 times with HBSS (Sigma-Aldrich, H8264-1L) using the ELx405 Microplate Washer (Biotek) to terminate the uptake reaction. After the washes, 50 uL/well Ultima Gold Scintillation Cocktail (Perkin Elmer, 6013326) was added to each well using the Viaflo 384 (Integra). The plates were then incubated (humidified, 37° C. with 5% CO2) on a plate shaker at 200 rpm for 2 hours. After incubation, the plates were removed from the shaker and kept at room temperature for 15 minutes.
Liquid scintillation analysis was performed using the MicroBeta2 Microplate Counter (Perkin Elmer). Activity (%) was derived by normalizing the average of positive control compound treated wells to 0% and the average of DMSO (negative control) wells to 100%. Collaborative Drug Discovery software was used for graphing data.

CN(C(=O)NCc1cc2cc(Cl)ccc2[nH]1)[C@@H]1CCCN(C(=O)Cc2ccn(C)n2)C1 [Compound 197, (R)-3-((5-chloro-1H-indol-2-yl)methyl)-1-methyl-1-(1-(2-(1-methyl-1H-pyrazol-3-yl)acetyl)piperidin-3-yl)urea]
IC50 (human SLC6A19 [1]): 396 nM
IC50 (human SLC6A19 [2]): 219 nM

CC(=O)N1CCC[C@@H](N(C)C(=O)NCCc2cc(-c3cc4ccccc4[nH]3)c(Cl)cc2F)C1 [Compound 245, (R)-1-(1-acetylpiperidin-3-yl)-3-(4-chloro-2-fluoro-5-(1H-indol-2-yl)phenethyl)-1-methylurea]
IC50 (human SLC6A19 [1]): 151 nM
IC50 (human SLC6A19 [2]): 459 nM

CN(C(=O)NCc1cc2cc(Cl)ccc2[nH]1)[C@@H]1CCCN(C(=O)c2cnco2)C1 [Compound 239, (R)-3-((5-chloro-1H-indol-2-yl)methyl)-1-methyl-1-(1-(oxazole-5-carbonyl)piperidin-3-yl)urea]
IC50 (human SLC6A19 [1]): 287 nM
IC50 (human SLC6A19 [2]): 209 nM

Cc1conc1N1CCC[C@@H](N(C)C(=O)NCc2cc3cc(Cl)ccc3[nH]2)C1 [Compound 234, (R)-3-((5-chloro-1H-indol-2-yl)methyl)-1-methyl-1-(1-(4-methylisoxazol-3-yl)piperidin-3-yl)urea]
IC50 (human SLC6A19 [1]): 255 nM
IC50 (human SLC6A19 [2]): 367 nM

Cc1cc(C(=O)N2CCC[C@@H](N(C)C(=O)NCc3cc4cc(Cl)ccc4[nH]3)C2)nn1C [Compound 236, (R)-3-((5-chloro-1H-indol-2-yl)methyl)-1-(1-(1,5-dimethyl-1H-pyrazole-3-carbonyl)piperidin-3-yl)-1-methylurea]
IC50 (human SLC6A19 [1]): 805 nM
IC50 (human SLC6A19 [2]): 975 nM

CC(=O)N1CCC[C@@H](N(C)C(=O)NCc2cc3cc(C)ccc3[nH]2)C1 [Compound 218, (R)-1-(1-acetylpiperidin-3-yl)-1-methyl-3-((5-methyl-1H-indol-2-yl)methyl)urea]
IC50 (human SLC6A19 [1]): 647 nM
IC50 (human SLC6A19 [2]): 273 nM

CC(=O)N1CCC[C@@H](N(C(=O)NCc2cc3cc(Cl)ccc3[nH]2)C2CC2)C1 [Compound 222, (R)-1-(1-acetylpiperidin-3-yl)-3-((5-chloro-1H-indol-2-yl)methyl)-1-cyclopropylurea]
IC50 (human SLC6A19 [1]): 63.3 nM
IC50 (human SLC6A19 [2]): 193 nM

CN(C(=O)NCc1cc2cc(Cl)ccc2[nH]1)[C@@H]1CCCN(C(=O)Cc2cocn2)C1 [Compound 202, (R)-3-((5-chloro-1H-indol-2-yl)methyl)-1-methyl-1-(1-(2-(oxazol-4-yl)acetyl)piperidin-3-yl)urea]
IC50 (human SLC6A19 [1]): 689 nM
IC50 (human SLC6A19 [2]): 168 nM

CC(=O)N1CCC[C@@H](N(C)C(=O)NCc2cc3[nH]cc(C)c3cc2Cl)C1 [Compound 235, (R)-1-(1-acetylpiperidin-3-yl)-3-((5-chloro-3-methyl-1H-indol-6-yl)methyl)-1-methylurea]
IC50 (human SLC6A19 [1]): 893 nM
IC50 (human SLC6A19 [2]): 673 nM

CC(=O)N1CCC[C@@H](N(C)C(=O)NCc2cc3cc(Cl)c(OCc4cc(C)on4)cc3[nH]2)C1 [Compound 135, (R)-1-(1-acetylpiperidin-3-yl)-3-((5-chloro-6-((5-methylisoxazol-3-yl)methoxy)-1H-indol-2-yl)methyl)-1-methylurea]
IC50 (human SLC6A19 [1]): 326 nM
IC50 (human SLC6A19 [2]): 162 nM

CN(C(=O)NCc1cc2cc(Cl)ccc2[nH]1)[C@@H]1CCCN(C(=O)c2ccc(O)cc2)C1 [Compound 189, (R)-3-((5-chloro-1H-indol-2-yl)methyl)-1-(1-(4-hydroxybenzoyl)piperidin-3-yl)-1-methylurea]
IC50 (human SLC6A19 [1]): 380 nM
IC50 (human SLC6A19 [2]): 264 nM

Cc1ocnc1C(=O)N1CCC[C@@H](N(C)C(=O)NCc2cc3cc(Cl)ccc3[nH]2)C1 [Compound 187, (R)-3-((5-chloro-1H-indol-2-yl)methyl)-1-methyl-1-(1-(5-methyloxazole-4-carbonyl)piperidin-3-yl)urea]
IC50 (human SLC6A19 [1]): 2770 nM
IC50 (human SLC6A19 [2]): 1230 nM

CN(C(=O)NCc1cc2cc(Cl)ccc2[nH]1)[C@@H]1CCCN(C(=O)c2cccnc2)C1 [Compound 237, (R)-3-((5-chloro-1H-indol-2-yl)methyl)-1-methyl-1-(1-nicotinoylpiperidin-3-yl)urea]
IC50 (human SLC6A19 [1]): 1210 nM
IC50 (human SLC6A19 [2]): 434 nM

CN(C(=O)NCc1cc2cc(Cl)ccc2[nH]1)[C@@H]1CCCN(C(=O)Cc2ccon2)C1 [Compound 201, (R)-3-((5-chloro-1H-indol-2-yl)methyl)-1-(1-(2-(isoxazol-3-yl)acetyl)piperidin-3-yl)-1-methylurea]
IC50 (human SLC6A19 [1]): 227 nM
IC50 (human SLC6A19 [2]): 205 nM

CNC(=O)N1CCC[C@@H](N(C)C(=O)NCc2cc3cc(Cl)ccc3[nH]2)C1 [Compound 171, (R)-3-(3-((5-chloro-1H-indol-2-yl)methyl)-1-methylureido)-N-methylpiperidine-1-carboxamide]
IC50 (human SLC6A19 [1]): 80.6 nM
IC50 (human SLC6A19 [2]): 150 nM

CCc1ccc2cc(CNC(=O)N(C)[C@@H]3CCCN(C(C)=O)C3)[nH]c2c1 [Compound 219, (R)-1-(1-acetylpiperidin-3-yl)-3-((6-ethyl-1H-indol-2-yl)methyl)-1-methylurea]
IC50 (human SLC6A19 [1]): 12900 nM
IC50 (human SLC6A19 [2]): > 10000 nM

CC(=O)N1C[C@@H](C)C[C@@H](N(C)C(=O)NCc2cc3cc(Cl)ccc3[nH]2)C1 (racemic) [Compound 243, 1-((3R,5S and 3S,5R)-1-acetyl-5-methylpiperidin-3-yl)-3-((5-chloro-1H-indol-2-yl)methyl)-1-methylurea]
IC50 (human SLC6A19 [1]): 153 nM
IC50 (human SLC6A19 [2]): 262 nM

CCN(C(=O)NCc1cc2cc(Cl)c(OCc3ccon3)cc2[nH]1)[C@@H]1CCCN(C(C)=O)C1 [Compound 137, (R)-1-(1-acetylpiperidin-3-yl)-3-((5-chloro-6-(isoxazol-3-ylmethoxy)-1H-indol-2-yl)methyl)-1-ethylurea]
IC50 (human SLC6A19 [1]): 273 nM
IC50 (human SLC6A19 [2]): 359 nM

CN(C(=O)NCc1cc2cc(Cl)ccc2[nH]1)[C@@H]1CCCN(C(=O)c2ccccn2)C1 [Compound 241, (R)-3-((5-chloro-1H-indol-2-yl)methyl)-1-methyl-1-(1-picolinoylpiperidin-3-yl)urea]
IC50 (human SLC6A19 [1]): 626 nM
IC50 (human SLC6A19 [2]): 387 nM

CN(C(=O)NCc1cc2cc(Cl)ccc2[nH]1)[C@@H]1CCCN(C(=O)c2cnoc2)C1 [Compound 238, (R)-3-((5-chloro-1H-indol-2-yl)methyl)-1-(1-(isoxazole-4-carbonyl)piperidin-3-yl)-1-methylurea]
IC50 (human SLC6A19 [1]): 836 nM
IC50 (human SLC6A19 [2]): 283 nM
